Laboratory results: patent EP0765662A1, “HIV GROWTH INHIBITORY COMPOSITION” (Kochi, Mutsuyuki, priority 1994, dated 1995)
Where a name gives a salt, the structure may show the parent alone.

System: HIV-1 (HTLV-IIIB strain)
Test: Occurrence of HIV-1 positive cells in U1 cells with or without TPA stimulation (indirect fluorescent antibody technique)
Assay type: cell-based
Conditions: for Rate (%) of occurrence of HIV-1 positive cells: U1 cells
Experimental: As the cell to be tested here for estimation of the occurrence of HIV in this Example, there were used such U1 cells which had been prepared by introducing 2 copies of the gene DNA of HIV-1 (HTLV-IIIB strain) into U937 cells (human monocytic blast-like cells, namely one sort of human T-cells). The U1 cell is an HIV potentially-infected T-cell wherein the HIV-1 gene is present merely as provirus.
The above-mentioned U1 cells were seeded and incubated in Costar 48-well-plates under such different conditions as indicated below. Thus, the U1 cells were seeded in a culture medium and were incubated in the presence of 5,6-O-benzylidene-L-ascorbic acid mono-sodium salt (hereinafter abbreviated as SBA) as incorporated at different concentrations by addition of SBA to the culture medium, or the U1 cells were incubated in the absence of SBA. The incubation of these U1 cells was further effected with such both two types of those U1 cells, namely with such one type of U1 cells which had been stimulated further by addition of TPA at various concentrations thereto, and with such another type of U1 cells which had not been stimulated by TPA.
When the U1 cells as stimulated by the addition of TPA were incubated, replication of the viral particles of HIV took place in considerable numbers of the U1 cells, resulting in the production of the HIV antigen within the cells, so that said cells thus became such HIV-positive cells which could sprout and release the viral particles of HIV therefrom. This replication of the viral particles of HIV can be detected by an indirect fluorescent antibody technique as illustrated below.
The U1 cells were thus incubated under the different conditions as explained in the above, including such a case where both SBA and TPA were not added; such a case where SBA was added, but TPA was not added; such a case where SBA was not added, but TPA was added; and such as case where both SBA and TPA were added, respectively. Then, the replication of the viral particles of HIV within the U1 cells, and the release of the viral particles of HIV from the U1 cells so incubated under the different conditions as above mentioned were detected by means of the indirect fluorescence technique in which there were employed a mouse monoclonal antibody having an anti-HIV-1 activity as a primary antibody and also employed an FITC-rabbit-originated […] as a secondary antibody. The number of the U1 cells which could be detected as the HIV-positive cells was calculated in term of percentage (%) on the basis of the total numbers of the U1 cells as subjected to the test, and it was expressed as the rate (%) of occurrence or appearance of the HIV-1 positive cells.

O=C1O[C@H]([C@@H]2COC(c3ccccc3)O2)C(O)=C1O (stereo partly drawn) [SBA, 5,6-O-benzylidene-L-ascorbic acid mono-sodium salt]
IC50 (Human immunodeficiency virus 1, IIIB, U1 cells incubated in the presence of TPA, read-out: concentration of SBA required to achieve 50% inhibition of the replication of the HIV viral particles): ~400 mg/L | Rate (%) of occurrence of HIV-1 positive cells (SBA 25 µg/ml, TPA (1 ng/ml) was added): 26% | Rate (%) of occurrence of HIV-1 positive cells (SBA 25 µg/ml, TPA was not added): 3% | Rate (%) of occurrence of HIV-1 positive cells (SBA 50 µg/ml, TPA (1 ng/ml) was added): 21% | Rate (%) of occurrence of HIV-1 positive cells (SBA 50 µg/ml, TPA was not added): 2% | Rate (%) of occurrence of HIV-1 positive cells (SBA 100 µg/ml, TPA (1 ng/ml) was added): 16% | Rate (%) of occurrence of HIV-1 positive cells (SBA 100 µg/ml, TPA was not added): 2% | Rate (%) of occurrence of HIV-1 positive cells (SBA 200 µg/ml, TPA (1 ng/ml) was added): 14% | Rate (%) of occurrence of HIV-1 positive cells (SBA 200 µg/ml, TPA was not added): 3% | Rate (%) of occurrence of HIV-1 positive cells (SBA 400 µg/ml, TPA (1 ng/ml) was added): 12% | Rate (%) of occurrence of HIV-1 positive cells (SBA 400 µg/ml, TPA was not added): 3% | Rate (%) of occurrence of HIV-1 positive cells (SBA 800 µg/ml, TPA (1 ng/ml) was added): 8% | Rate (%) of occurrence of HIV-1 positive cells (SBA 800 µg/ml, TPA was not added): 4%
